Values quoted from earlier work as cited in patent US4020157A, “Shortened analogs of somatostatin” (Ayerst McKenna and Harrison Ltd., priority 1975, dated 1977).

Conditions: reported by D. Sarantakis et al.

With “[Ala^3,14 ]-somatostatin (AGAKNFFWKTFTSA; Somatostatin-14; UniProt P61278 103-116, looked up, variant C3A C14A) [somatostatin analog synthesized by solid phase methods (Sarantakis et al.)]” as the substance, how does the “activity as % of the potency of somatostatin” value read?
The value was “about 0.01%”.
